Measurements from patent US20250041206A1, “Injectable Suspensions” (ASARINA PHARMA AB, priority 2017, published 2025).

Assay: Recovered dose from pre-filled syringes emptied through 27G needle after storage, not resuspended (gas chromatography)
Assay type: physicochemical
Conditions: suspension in pre-filled syringes during storage
Method: Filling weight was 0.5 g with the suspension having a density of about 0.95 g/mL.
The syringes were stored horisontally at 5° C., 25° C./60% RH and 40° C./75% RH, respectively, for up to twelve months. […] The syringes were taken directly from storage and not resuspended, mixed or shaken before ejection and assaying.

CC(=O)[C@H]1CC[C@H]2[C@@H]3CC[C@H]4C[C@@H](O)CC[C@]4(C)[C@H]3CC[C@]12C [3-beta-hydroxy-5-alpha-pregnan-20-one]
Primary particle size during storage: remained unchanged
